Measurements: patent US8685981B2, “Cyclic compound having hetero atom” (Daiichi Sankyo Company, Limited, priority 2009, dated 2014)

Test system: ST2 cells, murine bone marrow-derived stromal cells
Experiment: Osteoblast differentiation test (alkaline phosphatase activity)
Format: cell-based
Conditions: Mus musculus, ST-2, 96 h, at 0.03 μg/mL, four days of culturing, control group (0.1% DMSO) set at 100%, read-out: increase (%) in alkaline phosphatase activity
Experimental: ST2 cells, murine bone marrow-derived stromal cells, (obtained from RIKEN) were used.
In this test, α-MEM media (obtained from GIBCO BRL Cat. No. 10370-021) containing 10% (v/v) of inactivated calf serum (obtained from Hyclone Laboratories, Inc.) and 1% (v/v) of Penicillin-Streptomycin Liquid (obtained from GIBCO BRL Cat. No. 15140-122) (hereinbelow, abbreviated as 10%-FBS-αMEM) were used. In this test, all culturing was performed in a CO2 incubator (37° C., 95% humidity, 5% CO2).
The aforementioned cells were detached with 2 mL of a 0.25% trypsin solution (obtained from GIBCO BRL Cat. No. 15050-065) and dispersed in 10 mL of 10%-FBS-αMEM. Subsequently, the cells were collected by centrifugation (25° C., 800 rpm, five minutes). Then, a cell suspension containing 40000 of the cells/mL of 10%-FBS-αMEM was prepared. The cell suspension was then dispensed into 96-well plates (the product of Falcon), 100 μL per well, at a density of 4000 cells/well, followed by culturing for 24 hours. To the wells except for the below-described well containing a control group, the compound was dispensed at final concentrations of 0.01, 0.03, 0.1, and 0.3 μg/ml. To the well of a control group, DMSO was dispensed at a final concentration of 0.1% (v/v). After four days of culturing, the activity of alkaline phosphatase (ALP) was measured in each group.
The measurement of ALP activity was performed as follows. That is, the medium in each well of the culture plates was completely removed. Each well was then washed by dispensing 100 μL of Dulbecco's phosphate buffer (obtained from GIBCO BRL Cat. No. 14190-144) and then removing it. A cell lysate solution containing 10 mM MgCl2 and 2% (v/v) TritonX-100 (Sigma) was prepared and dispensed at 50 μL/well, followed by stirring at room temperature for five minutes. An ALP substrate solution containing 50 mM diethanolamine (Wako pure chemical industries, Ltd., Cat. No. 099-03112) and 20 mM p-nitrophenyl phosphate (Wako pure chemical industries, Ltd., Cat. No. 147-02343) was prepared and dispensed at 50 μL/well, and the plates were left to stand at room temperature for 10 minutes. Subsequently, absorbance was measured by a microplate reader (Bio-Rad Laboratories, Inc.). Setting the measurement value of the control group of each plate at 100%, the increase (%) in alkaline phosphatase activity in the test compound-addition group was calculated, which was assessed as the degree of osteoblast differentiation.

SMILES	activity at 0.03 µg/mL [%]
NC(=O)c1ccc2cncc(N3CCC(C(=O)c4ccc(F)cc4)CC3)c2c1 [Example 70]	≥ 200
NC(=O)c1ccc2cncc(N3CCN(c4nccs4)CC3)c2c1 [Example 18, 4-[4-(1,3-Thiazol-2-yl)piperazin-1-yl]isoquinoline-6-carboxamide]	≥ 200
CCOCCOC1CCN(c2cncc3ccc(C(N)=O)nc23)CC1 [Example 2, 8-[4-(2-Ethoxyethoxy)piperidin-1-yl]-1,6-naphthyridine-2-carboxamide]	≥ 200
NC(=O)c1ccc2cncc(N3CCC(OCCOC4CCOC4)CC3)c2n1 (stereo not shown) [Example 117]	≥ 200
NC(=O)c1ccc2cncc(N3CCC(OC4CCCCO4)CC3)c2c1 (stereo not shown) [Example 75]	≥ 200
COC1CCN(c2cncc3ccc(C(N)=O)cc23)CC1 [Example 76]	≥ 200
NC(=O)c1ccc2cncc(N3CCOCC3)c2c1 [Example 35]	≥ 200
CC(C)OCCOC1CCN(c2cncc3ccc(C(N)=O)nc23)CC1 [Example 111]	≥ 200
NC(=O)c1ccc2cncc(N3CCCC(COC(F)F)C3)c2c1 (stereo not shown) [Example 103]	≥ 200
NC(=O)c1ccc2cncc(N3CCN(c4ccc([N+](=O)[O-])cc4)CC3)c2c1 [Example 57]	≥ 200
NC(=O)c1ccc2cncc(N3CCC(C4CCOCC4)CC3)c2c1 [Example 65]	≥ 200
NC(=O)c1ccc2cncc(N3CCC(COC4CCOCC4)CC3)c2c1 [Example 77]	≥ 200
NC(=O)c1ccc2cncc(N3CC[C@@H]4CCCC[C@H]4C3)c2c1 [Example 67]	≥ 200
CC(=O)C1(c2ccccc2)CCN(c2cncc3ccc(C(N)=O)cc23)CC1 [Example 46]	≥ 200
NC(=O)c1ccc2cncc(N3CCC(OCCOC4CCOCC4)CC3)c2c1 [Example 81]	≥ 200
COCC1CCN(c2cncc3ccc(C(N)=O)cc23)C1 (stereo not shown) [Example 73]	≥ 200
CC1CCN(c2cncc3ccc(C(N)=O)cc23)C1 (stereo not shown) [Example 72]	≥ 200
NC(=O)c1ccc2cncc(N3CCC(OCCOCC4CCOC4)CC3)c2n1 (stereo not shown) [Example 5, 8-{4-[2-(Tetrahydrofuran-3-ylmethoxy)ethoxy]piperidin-1-yl}-1,6-naphthyridine-2-carboxamide]	≥ 200
NC(=O)c1ccc2cncc(N3CCC(c4ccccc4)CC3)c2c1 [Example 42]	≥ 200
NC(=O)c1ccc2cncc(N3CCC(OCCOC4CCOCC4)CC3)c2n1 [Example 6, 8-{4-[2-(Tetrahydro-2H-pyran-4-yloxy)ethoxy]piperidin-1-yl}-1,6-naphthyridine-2-carboxamide]	≥ 200
COCC1CN(c2cncc3ccc(C(N)=O)cc23)CCC1OC (stereo not shown) [Example 109]	≥ 200
NC(=O)c1ccc2cncc(N3CCC(OCC(=O)N4CCOCC4)CC3)c2c1 [Example 93]	≥ 200
NC(=O)c1ccc2cncc(N3CCN(c4ccccc4)CC3)c2n1 [Example 28]	≥ 200
NC(=O)c1ccc2cncc(N3CCCCC3)c2c1 [Example 16, 4-(Piperidin-1-yl)isoquinoline-6-carboxamide]	≥ 200
NC(=O)c1ccc2cncc(N3CCCC(COC(F)F)C3)c2n1 (stereo not shown) [Example 104]	≥ 200
NC(=O)c1ccc2cncc(N3CCC(F)(F)CC3)c2c1 [Example 43]	≥ 200
NC(=O)c1ccc2cncc(N3CCC(COC(F)F)CC3)c2c1 [Example 95]	≥ 200
NC(=O)c1ccc2cncc(N3CC=C(c4ccccc4)CC3)c2c1 [Example 24, 4-(4-Phenyl-3,6-dihydropyridine-1(2H)-yl)isoquinoline-6-carboxamide]	≥ 200

SMILES	activity at 0.03 µg/mL [%]
NC(=O)c1ccc2cncc(N3CCC(CO)CC3)c2c1 [Example 55]	≥ 200
CCN(C)C(=O)N1CCN(c2cncc3ccc(C(N)=O)nc23)CC1 [Example 115]	≥ 200
NC(=O)c1ccc2cncc(N3CCCN(c4ccccc4)CC3)c2c1 [Example 63]	≥ 200
CN(C)S(=O)(=O)CCOC1CCN(c2cncc3ccc(C(N)=O)cc23)CC1 [Example 106]	≥ 200
NC(=O)c1ccc2cncc(N3CCC(OCCOC4CC4)CC3)c2c1 [Example 87]	≥ 200
COCC1CN(c2cncc3ccc(C(N)=O)nc23)CCC1OC (stereo not shown) [Example 108]	≥ 200
CN(C)C(=O)N1CCN(c2cncc3ccc(C(N)=O)nc23)CC1 [Example 10, 8-[4-(Dimethylcarbamoyl)piperazin-1-yl]-1,6-naphthyridine-2-carboxamide]	≥ 200
COCCC1CCCN(c2cncc3ccc(C(N)=O)cc23)C1 (stereo not shown) [Example 41]	≥ 200
NC(=O)c1ccc2cncc(N3CCCC(CO)C3)c2c1 (stereo not shown) [Example 56]	≥ 200
COCC1CCCN(c2cncc3ccc(C(N)=O)cc23)C1 (stereo not shown) [Example 17, 4-[3-(Methoxymethyl)piperidin-1-yl]isoquinoline-6-carboxamide]	≥ 200
NC(=O)c1ccc2cncc(-n3cccc3)c2c1 [Example 34]	≥ 200
COCC1CN(c2cncc3ccc(C(N)=O)cc23)CCN1c1ccccc1 (stereo not shown) [Example 84]	≥ 200
COCC1CCN(c2cncc3ccc(C(N)=O)nc23)CC1 [Example 112]	≥ 200
NC(=O)c1ccc2cncc(N3CCC(O)(c4ccc(Cl)cc4)CC3)c2c1 [Example 54]	≥ 200
CN(C)C(=O)COC1CCN(c2cncc3ccc(C(N)=O)cc23)CC1 [Example 94]	≥ 200
NC(=O)c1ccc2cncc(N3CCc4ccccc4C3)c2c1 [Example 59]	≥ 200
NC(=O)c1ccc2cncc(N3CCC(COC4CCCCO4)CC3)c2c1 (stereo not shown) [Example 52]	≥ 200
COCCOC1CCN(c2cncc3ccc(C(N)=O)nc23)CC1 [Example 1, 8-[4-(2-Methoxyethoxy)piperidin-1-yl]-1,6-naphthyridine-2-carboxamide]	≥ 200
NC(=O)c1ccc2cncc(N3CCC(OCC(=O)N4CCCC4)CC3)c2n1 [Example 113]	≥ 200
NC(=O)c1ccc2cncc(N3CCC(OCCOCCO)CC3)c2c1 [Example 85]	≥ 200
COCC1CN(c2cncc3ccc(C(N)=O)cc23)CCO1 (stereo not shown) [Example 105]	≥ 200
NC(=O)c1ccc2cncc(N3CCC(O)CC3)c2c1 [Example 89]	≥ 200
NC(=O)c1ccc2cncc(N3CCN(c4cccc(F)c4)CC3)c2n1 [Example 32]	≥ 200
NC(=O)c1ccc2cncc(N3CCC(OCCO)CC3)c2c1 [Example 20, 4-[4-(2-Hydroxyethoxy)piperidin-1-yl]isoquinoline-6-carboxamide]	≥ 200
CCN(C)C(=O)COC1CCN(c2cncc3ccc(C(N)=O)nc23)CC1 [Example 116]	≥ 200
NC(=O)c1ccc2cncc(N3CCN(C(=O)N4CCCC4)CC3)c2n1 [Example 114]	≥ 200
CN(C)C(=O)COC1CCN(c2cncc3ccc(C(N)=O)nc23)CC1 [Example 8, 8-{4-[2-(Dimethylamino)-2-oxoethoxy]piperidin-1-yl}-1,6-naphthyridine-2-carboxamide]	≥ 200
